Assay results reported in patent publication US20110251135A1, “INHIBITORS OF PERITONEAL SEEDING OF CANCER CELLS” (University of Utah Research Foundation, priority 2008, published 2011).
“Also recorded” adds a separate entry of the source. Where a SMILES comes first, the peptide text is derived from it. The star is where a group is joined. Cbz = O=C(OCc1ccccc1)*

How the values were obtained:
Su.86 cells = experiment: Cell survival and readhesion assay (crystal violet); type: cell-based, human; settings: Su.86 (lack PPARγ); 30 μM GW 9662
Text: (§1) Untreated adherent monolayers (Control) and Jurkat cells treated with TNFα (Jurkat Control) served as controls. The cells were collected and analyzed for NF-κB activation in an ELISA (see Methods). […] The floating and readherent cells were collected and lysed. Aliquots of the cell lysates were used to generate cleaved PARP immunoblots. All lanes contain equal total protein concentrations and the actin blot served as a loading control. The blots shown are typical of duplicate experiments. […] The floating cells were washed away and the adherent cells were then fixed and stained with crystal violet. The cells were lysed in deoxycholate and the intensity of the staining quantified by spectrophotometry. The results are normalized to the controls.
(§2) FIGS. 13A-B show transiently suspended Su.86 (PPARγ-negative) and HT-29 (PPARγ-positive) cancer cells were allowed to readhere in the presence of various concentrations of ciglitazone for 8 hours. The cells were also incubated with or without the irreversible PPARγ inhibitor GW9662 during readhesion. The floating cells were washed away and the adherent cells were then fixed and stained with crystal violet. The cells were lysed in deoxycholate and the intensity of the staining quantified by spectrophotometry. The results are normalized to the controls. […]

HT-29 cells [1] = experiment: as above; type: cell-based, human; settings: HT-29 (overexpress PPARγ); 30 μM GW 9662
Text: as §1, §2

[2] = tested on: colon and pancreatic cancer cells; experiment: Apoptosis of colon and pancreatic cancer cells during readhesion; type: cell-based, human
HT-29 cells [3] = experiment: Cleaved PARP immunoblot of adherent and nonadherent cells; type: cell-based, human; settings: 20 μM MG-132 for 8 h
Description: The cells were washed twice in ice cold PBS and then lysed in 4° C. lysis buffer (50 mM HEPES, 150 mM NaCl, 1.5 mM MgCl2, 1 mM EGTA, 100 mM NaF, 10 mM Na2PO4, 1 mM Na3VO4, 10% glycerol, 1% TRITON™ X-100, and 1 μg/mL each of aprotinin, leupeptin, chymostatin, pepstatin) and clarified at 12,000 rpm at 4° C. for 15 minutes. The lysates were normalized for total protein concentration. Aliquots of the lysates were then mixed 1:1 in sample buffer (125 mM Tris-HCl (pH 6.8), 20% glycerol, 4% sodium dodecyl sulfate, 2% β-mercaptoethanol, 10 μg/mL bromophenol blue) and boiled for 3 minutes. The samples were loaded onto SDS-PAGE gels (7.5 or 10% acrylamide). The proteins were transferred to nitrocellulose from the gels and incubated in blocking buffer (1% bovine serum albumin (Bio-Rad), 100 mM Tris-Cl (pH 7.4), 0.9% NaCl, 0.1% Nonidet) overnight at 4° C.
(§3) For immunodetection, the blocked blots were probed with primary antibody for 2 hours at 4° C. on a rocker. […] Alkaline phosphatase was detected by a colorimetric reaction using a BCIP (5-bromo-4-chloro-3-indolyl phosphate)/NBT (nitroblue tetrazolium) kit (Zymed).
It was confirmed in HT-29 cells that were treated with increasing concentrations of BAY 11-7085 for 24 h. After separating the HT-29 cells that remained adherent and those that became nonadherent after BAY 11-7085 treatment, the percentage of apoptotic cells was determined for each group. […]

adherent HT-29 cells = experiment: Annexin V-FITC apoptosis assay, adherent cells; type: cell-based, human; settings: adherent HT-29; 24 hours; BAY compounds at doses up to 20, MG-132 20 μM
Text: FIG. 3 is a group of graphs that show NF-κB inhibitors cause apoptosis of colon cancer cells. […] The data points represent the average percent of annexin V-positive, propidium iodide-negative cells (of the total cells counted) from triplicate experiments. The error bars represent the standard error of the means. […] The results shown are a graphic representation of individual flow cytometry results expressed as the percentage of cells that were annexin V-positive of those that excluded propidium iodide. […] An immunoblot of the lysates for cleaved PARP was performed. Each lane represents equal total protein concentrations. […] The cells were allowed to adhere to plastic dishes for 1 hour after which they were washed gently in PBS and stained with crystal violet. The crystal violet stained cells were solubilized in deoxycholate and the absorbance detected in a spectrophotometer at 590 nm. The adherent cells were expressed as a fraction of the controls. Each data point represents the average of triplicate experiments and the error bars the standard errors of the means.
The data points represent the means of triplicate experiments and the error bars the standard errors of the means. […] The percent of apoptotic cells was then determined by the annexin V assay. […] The results shown are typical of two separate experiments. […] Immunoblots were performed for c-IAP-2, TRAF-1, TRAF-2, and FLIP. All lanes contain equal total protein.
(§4) Single cell suspensions were plated at 100,000 cells per well in 24-well plates in media containing DMSO, BAY 11-7082, BAY 11-7085, or MG-132 for 8-24 hours in an incubator. Alternatively, DMSO, BAY 11-7082, BAY 11-7085, or MG-132 were added to cells that were confluent and adherent for several days. The nonadherent cells were aspirated off with the media and spun for 3 minutes at 2,000 rpm in 15 mL polypropylene tubes. The adherent cells were washed twice with PBS, dispersed in trypsin, and spun down for 3 minutes at 2,000 rpm in 15 mL polypropylene tubes. The nonadherent and adherent cells were resuspended in 1× binding buffer (10 mM HEPES/NaOH, pH 7.4, 140 mM NaCl, and 2.5 mM CaCl2) to a final concentration of 10^6 cells/mL. 100 μL of the cell solution were transferred to a 5 mL culture tube and incubated with 5 μL of annexin V-FITC-conjugated monoclonal antibody (Pharmingen) and 10 μl, of propidium iodide (from a 50 μg/mL stock solution made in PBS) in the dark at 25° C. for 15 minutes. 400 μL of binding buffer was added to each tube and the cells were analyzed by flow cytometry immediately. The percent of apoptosis was determined as the percent of annexin V-positive, propidium iodide-negative cells of the total cells counted.

HCT-116 cells = experiment: Cleaved PARP immunoblot of adherent and non-adherent cells; type: cell-based, human; settings: 20 μM MG-132 for 24 hours
Text: FIG. 3 is a group of graphs that show NF-κB inhibitors cause apoptosis of colon cancer cells. […] The data points represent the average percent of annexin V-positive, propidium iodide-negative cells (of the total cells counted) from triplicate experiments. The error bars represent the standard error of the means. […] The results shown are a graphic representation of individual flow cytometry results expressed as the percentage of cells that were annexin V-positive of those that excluded propidium iodide. […] An immunoblot of the lysates for cleaved PARP was performed. Each lane represents equal total protein concentrations. […] The cells were allowed to adhere to plastic dishes for 1 hour after which they were washed gently in PBS and stained with crystal violet. The crystal violet stained cells were solubilized in deoxycholate and the absorbance detected in a spectrophotometer at 590 nm. The adherent cells were expressed as a fraction of the controls. Each data point represents the average of triplicate experiments and the error bars the standard errors of the means. […]
as §3

[4] = tested on: transiently suspended HT-29 cells; experiment: Apoptosis of transiently suspended cells during readhesion (annexin V assay); type: cell-based, human; settings: various concentrations, 4 hours; compared with BAY 11-7085
Description: HT-29 cells that were either transiently suspended with trypsin-EDTA or adherent for three days, were treated at time zero with DMSO or 10-100 μM BAY 11-7085. The percent of apoptotic cells was determined using the annexin V flow cytometry assay and graphed versus the dose of BAY 11-7085. FIG. 4B are photographs showing DLD-1, FIG. 4C are photographs showing HCT-116, and FIG. 4D are photographs showing HT-29 cells that were transiently suspended in trypsin-EDTA and allowed to readhere to glass coverslips for 1-24 hours. The cells were fixed and immunostained with an NF-κB p65 subunit monoclonal antibody.
The transiently suspended cells were lysed and allowed to bind to DNA oligonucleotides, containing the NF-κB consensus binding site, that were immobilized to 96-well plates. NF-κB protein bound to the oligonucleotides was detected by an antibody to the p65 subunit that only recognized p65 that is bound to DNA. The positive control was HeLa cells that were stimulated with TNFα. A control was performed using excess free NF-κB oligonucleotides (Competitor). […] NF-κB binding activity was determined by the TransAM assay as in FIG. 5A. […] The data shown represent typical results of three separate experiments. […] An immunoblot for COX-2 was performed.
The percentage of apoptotic cells was determined using the annexin V assay. The data points represent the averages of three experiments; bars, +−.SE. E. DLD-1 and F. HT-29 cells were transduced with an adenovirus containing the IκB super-repressor construct. After 3 days, the cells were transiently suspended and allowed to readhere in the presence of subapoptotic concentrations of BAY 11-7085 or DMSO (vehicle) for 8 hours. The data are expressed as fractions of cells surviving compared with the controls (no adenovirus) and were quantitatively determined by staining the remaining adherent cells with crystal violet.
as §4
Various concentrations of BAY 11-7085 were added to HT-29 cells that were transiently suspended in trypsin-PBS for approximately 15 minutes before replating. The transiently suspended cells were quickly allowed to readhere in order to prevent anoikis. Alternatively, BAY 11-7085 was added to adherent HT-29 cell monolayers.

JNK = JNK activity (phosphorylation of c-JUN) in colon and pancreatic cancer cell lines; type: cell-based, human
FLIP = FLIP expression in pancreatic and colon cancer cell lines; type: cell-based, human; settings: anisomycin 1.5 and 4 hours
Description: In order to determine the role of JNK activity in FLIP downregulation, pancreatic and colon cancer cell lines were treated with anisomycin for 1.5 and 4 hours.

[5] = humans; after a single or multiple oral doses; read-out: Cmax blood levels; cited from earlier work
RANK = experiment: NF-κB activation in colon cancer cell lines incubated with soluble RANK; type: cell-based, human
Text: Of other members of the TNF receptor superfamily, Receptor Activator of NF-κB (RANK) is highly expressed in the digestive tract. […] Thus, RANK appears to be important in the activation of NF-κB during colon cancer cell readhesion.

Question: Which results are given for `O=C(Nc1ccccc1)c1cc([N+](=O)[O-])ccc1Cl` [GW9662]?
Answer: effect of GW 9662 on the efficacy of ciglitazone (Su.86 cells): did not significantly affect the efficacy of ciglitazone; effect of GW 9662 on the efficacy of ciglitazone (HT-29 cells [1]): did not significantly affect the efficacy of ciglitazone; effect of GW9662 on the pro-apoptotic activity of pioglitazone ([2]; cancer cell readhesion): failed to inhibit the pro-apoptotic activity of pioglitazone

Question: Which “cleaved PARP in cells that remained adherent” value (HT-29 cells [3]) does the source give for `CC(C)C[C@@H](C=O)NC(=O)[C@H](CC(C)C)NC(=O)[C@H](CC(C)C)NC(=O)OCc1ccccc1` [MG-132, N-[(phenylmethoxy)carbonyl]-leucyl-N-[(1S)-1-formyl-3-methylbutyl]-L-leucinamide] (Cbz-Leu-Leu-Leu-aldehyde) here?
Answer: The value was “only a small increase in cleaved PARP”.

Question: What about the “cleaved PARP in nonadherent cells” value (HT-29 cells [3]) of the same molecule?
Answer: The value was “large increase in cleaved PARP”.

Question: And the “level of apoptosis (annexin V-positive, propidium iodide-negative cells)” value (adherent HT-29 cells)?
Answer: The value was “relatively greater for MG-132 than BAY 11-7085; also recorded: caused a greater increase in apoptosis”.

Question: And the “cleaved PARP in cells that remained adherent” value (HCT-116 cells)?
Answer: Its value is “only a small increase in cleaved PARP”.

Question: What about the “cleaved PARP in non-adherent cells” value (HCT-116 cells) of the same molecule?
Answer: Its value is “large increase in cleaved PARP”.

Question: What about the “induction of apoptosis of HT-29 cells during readhesion” value [4] of the same molecule?
Answer: The value was “more potently induced apoptosis”.

Question: For `COc1ccc(C[C@H]2NC[C@H](O)[C@H]2OC(C)=O)cc1` [anisomycin], which “JNK activity (phosphorylation of c-JUN)” value (JNK) is on record?
Answer: The value was “readily induced JNK activity”.

Question: And the FLIP expression (FLIP)?
Answer: The FLIP expression was “caused a decrease in FLIP expression”.

Question: What about the “apoptosis during cell readhesion” value ([2]; colon and pancreatic cancer cell lines, anisomycin alone) of the same molecule?
Answer: The value was “not as effective as BAY 11-7085, anisomycin induced apoptosis”.

Question: What about the “effect on pro-apoptotic activity of BAY 11-7085” value ([2]; readhering colon and pancreatic cancer cells, anisomycin with BAY 11-7085) of the same molecule?
Answer: Its value is “increased the pro-apoptotic activity of BAY 11-7085”.

Question: For `CCc1ccc(CCOc2ccc(CC3SC(=O)NC3=O)cc2)nc1` (stereo not drawn) [pioglitazone], which Cmax [5] is on record?
Answer: The Cmax was 2500 nM.

B1: soluble RANK: soluble Receptor Activator of NF-κB, inhibits ligand-dependent RANK activation (protein, UniProt Q9Y6Q6 30-212, looked up)
extracellular domain: IAPPCTSEKHYEHLGRCCNKCEPGKYMSSKCTTTSDSVCLPCGPDEYLDSWNEEDKCLLHKVCDTGKALVAVVAGNSTTPRRCACTAGYHWSQDCECCRRNTECAPGLGAQHPLQLNKDTVCKPCLAGYFSDAFSSTDKCRPWTNCTFLGKRVEHHGTEKSDAVCSSSLPARKPPNEPHVYLP
modifications: extracellular domain
Question: For B1, which “activation of NF-κB” value (RANK) is on record?
Answer: The value was “significantly reduced the activation of NF-κB”.
